From PubChem BioAssay AID1259407 (Chemical Carcinogenesis Research Information System (CCRIS), 2018)
Active and inactive are the calls of the source. No rule for the calls is given here.

Tested on: CCRIS mutagenicity, Ames/micronucleus/aberration tests
Experiment: CCRIS mutagenicity studies
[1] = Test System: AMES SALMONELLA TYPHIMURIUM, Strain/Indicator: TA98, Metabolic Activation: NONE, Method: STANDARD PLATE
[2] = Test System: AMES SALMONELLA TYPHIMURIUM, Strain/Indicator: TA98, Metabolic Activation: RAT, LIVER, S-9, AROCLOR 1254, Method: STANDARD PLATE
[3] = Test System: AMES SALMONELLA TYPHIMURIUM, Strain/Indicator: TA100, Metabolic Activation: NONE, Method: STANDARD PLATE
[4] = Test System: AMES SALMONELLA TYPHIMURIUM, Strain/Indicator: TA100, Metabolic Activation: RAT, LIVER, S-9, AROCLOR 1254, Method: STANDARD PLATE

O=NN1CCCC1
mutagenic call (Test System: AMES SALMONELLA TYPHIMURIUM, Strain/Indicator: TA97, Metabolic Activation: NONE, Method: STANDARD PLATE): inactive; negative
mutagenic call (Test System: AMES SALMONELLA TYPHIMURIUM, Strain/Indicator: TA97, Metabolic Activation: RAT, LIVER, S-9, AROCLOR 1254, Method: STANDARD PLATE): inactive; negative
mutagenic call [1]: inactive; negative
mutagenic call [2]: inactive; negative
mutagenic call (Test System: AMES SALMONELLA TYPHIMURIUM, Strain/Indicator: TA100, Metabolic Activation: HAMSTER, LIVER, S-9, Method: PREINCUBATION): active; positive
mutagenic call (Test System: AMES SALMONELLA TYPHIMURIUM, Strain/Indicator: TA100, Metabolic Activation: HUMAN, LIVER, S-9, Method: PREINCUBATION): active; positive
mutagenic call [3]: inactive; negative
mutagenic call (Test System: AMES SALMONELLA TYPHIMURIUM, Strain/Indicator: TA100, Metabolic Activation: PIG, LIVER, S-9, Method: PREINCUBATION): active; positive
mutagenic call (Test System: AMES SALMONELLA TYPHIMURIUM, Strain/Indicator: TA100, Metabolic Activation: RABBIT, LIVER, S-9, Method: STANDARD PLATE): inactive; negative
mutagenic call (Test System: AMES SALMONELLA TYPHIMURIUM, Strain/Indicator: TA100, Metabolic Activation: RABBIT, LUNG, S-9, Method: STANDARD PLATE): inactive; negative rabbit, lung, s-9
mutagenic call (Test System: AMES SALMONELLA TYPHIMURIUM, Strain/Indicator: TA100, Metabolic Activation: RABBIT, NASAL, S-9, Method: STANDARD PLATE): active; positive
mutagenic call (Test System: AMES SALMONELLA TYPHIMURIUM, Strain/Indicator: TA100, Metabolic Activation: RAT, ESOPHAGUS, S-9, Method: PREINCUBATION): active; positive
mutagenic call (Test System: AMES SALMONELLA TYPHIMURIUM, Strain/Indicator: TA100, Metabolic Activation: RAT, FORESTOMACH, S-9, Method: PREINCUBATION): active; positive
mutagenic call (Test System: AMES SALMONELLA TYPHIMURIUM, Strain/Indicator: TA100, Metabolic Activation: RAT, GLANDULAR STOMACH, S-9, Method: PREINCUBATION): active; positive
mutagenic call (Test System: AMES SALMONELLA TYPHIMURIUM, Strain/Indicator: TA100, Metabolic Activation: RAT, LIVER, S-9, AROCLOR 1254, Method: PREINCUBATION): active; positive
mutagenic call [4]: inactive; negative
mutagenic call (Test System: AMES SALMONELLA TYPHIMURIUM, Strain/Indicator: TA100, Metabolic Activation: RAT, LIVER, S-9, Method: PREINCUBATION): inactive; negative
mutagenic call (Test System: AMES SALMONELLA TYPHIMURIUM, Strain/Indicator: TA100, Metabolic Activation: RAT, LIVER, S-9, Method: STANDARD PLATE): inactive; negative
mutagenic call (Test System: AMES SALMONELLA TYPHIMURIUM, Strain/Indicator: TA100, Metabolic Activation: RAT, LUNG, S-9, Method: STANDARD PLATE): inactive; negative
mutagenic call (Test System: AMES SALMONELLA TYPHIMURIUM, Strain/Indicator: TA100, Metabolic Activation: RAT, NASAL, S-9, Method: STANDARD PLATE): active; positive
mutagenic call (Test System: AMES SALMONELLA TYPHIMURIUM, Strain/Indicator: TA102, Metabolic Activation: RAT, LIVER, S-9, AROCLOR 1254, Method: PREINCUBATION): active; positive
mutagenic call (Test System: AMES SALMONELLA TYPHIMURIUM, Strain/Indicator: TA104, Metabolic Activation: RAT, LIVER, S-9, AROCLOR 1254, Method: PREINCUBATION): active; positive
mutagenic call (Test System: AMES SALMONELLA TYPHIMURIUM, Strain/Indicator: TA1530, Metabolic Activation: RAT LIVER, CYTOSOL, ISONIAZID, Method: PREINCUBATION): inactive; negative
mutagenic call (Test System: AMES SALMONELLA TYPHIMURIUM, Strain/Indicator: TA1530, Metabolic Activation: RAT LIVER, MICROSOMES, ISONIAZID, Method: PREINCUBATION): active; positive
mutagenic call (Test System: AMES SALMONELLA TYPHIMURIUM, Strain/Indicator: TA1530, Metabolic Activation: RAT, LIVER, S-9, Method: STANDARD PLATE): active; positive
mutagenic call (Test System: AMES SALMONELLA TYPHIMURIUM, Strain/Indicator: TA1535, Metabolic Activation: RAT, LIVER, MICROSOMES, Method: PREINCUBATION): active; positive
mutagenic call (Test System: AMES SALMONELLA TYPHIMURIUM, Strain/Indicator: TA1535, Metabolic Activation: RAT, LIVER, S-9, 3-METHYLCHOLANTHRENE, Method: STANDARD PLATE): inactive; negative
mutagenic call (Test System: AMES SALMONELLA TYPHIMURIUM, Strain/Indicator: TA1535, Metabolic Activation: RAT, LIVER, S-9, AROCLOR 1254, Method: PREINCUBATION): active; positive
mutagenic call (Test System: AMES SALMONELLA TYPHIMURIUM, Strain/Indicator: TA1535, Metabolic Activation: RAT, LIVER, S-9, ETHANOL, Method: STANDARD PLATE): active; positive
mutagenic call (Test System: AMES SALMONELLA TYPHIMURIUM, Strain/Indicator: TA1535, Metabolic Activation: RAT, LIVER, S-9, PHENOBARBITAL, Method: STANDARD PLATE): active; positive
mutagenic call (Test System: AMES SALMONELLA TYPHIMURIUM, Strain/Indicator: TA1535, Metabolic Activation: RAT, LIVER, S-9, PHENOBARBITONE AND BETA-NAPHTHOFLAVONE, Method: PREINCUBATION): active; positive
mutagenic call (Test System: AMES SALMONELLA TYPHIMURIUM, Strain/Indicator: TA1535, Metabolic Activation: RAT, LIVER, S-9, PHENOBARBITONE AND BETA-NAPHTHOFLAVONE, Method: STANDARD PLATE): active; positive
mutagenic call (Test System: AMES SALMONELLA TYPHIMURIUM, Strain/Indicator: TA1535, Metabolic Activation: RAT, LIVER, S-9, PYRAZOLE, Method: PREINCUBATION): active; positive
mutagenic call (Test System: AMES SALMONELLA TYPHIMURIUM, Strain/Indicator: TA1535, Metabolic Activation: RAT, LIVER, S-9, PYRAZOLE, Method: STANDARD PLATE): active; positive
mutagenic call (Test System: AMES SALMONELLA TYPHIMURIUM, Strain/Indicator: TA1975, Metabolic Activation: RAT, LIVER, S-9, AROCLOR 1254, Method: PREINCUBATION): active; positive
mutagenic call (Test System: AMES SALMONELLA TYPHIMURIUM, Strain/Indicator: TA2410, Metabolic Activation: NONE, Method: HOST-MEDIATED): inactive; negative
mutagenic call (Test System: AMES SALMONELLA TYPHIMURIUM, Strain/Indicator: TA2678, Metabolic Activation: NONE, Method: HOST-MEDIATED): inactive; negative
mutagenic call (Test System: Ames Salmonella typhimurium, Strain/Indicator: YG7108, Metabolic Activation: Rat, Liver, S-9, Phenobarbital/beta-naphtoflavone, Method: Standard plate): active; positive
mutagenic call (Test System: Ames Salmonella typhimurium, Strain/Indicator: YG7108pin3ERb5, Metabolic Activation: None, Method: Standard plate): active; positive
mutagenic call (Test System: CHINESE HAMSTER OVARY, Strain/Indicator: CHO-K1-BH4 (HGPRT), Metabolic Activation: RAT, LIVER, S-9, AROCLOR, Method: SUSPENSION/PLATE): active; positive
mutagenic call (Test System: CHINESE HAMSTER V-79, Strain/Indicator: V-79/8-AZAGUANINE, Metabolic Activation: RAT, LIVER, S-15, PHENOBARBITAL, Method: STANDARD PLATE): active; positive
mutagenic call (Test System: UDS RODENT HEPATOCYTES, Strain/Indicator: THY INCORP (NON-S-PHASE), Method: AUTORADIOGRAPHY): active; positive

O=C(/C=C/c1ccccc1)c1ccc(F)cc1
mutagenic call [1]: inactive; negative
mutagenic call [2]: inactive; negative
mutagenic call [3]: inactive; negative
mutagenic call [4]: inactive; negative

O=[N+]([O-])c1c(O)cc2c3c(cccc13)-c1ccccc1-2
mutagenic call [1]: active; positive
mutagenic call [2]: active; positive

CCN(N)CC
mutagenic call (Test System: AMES SALMONELLA TYPHIMURIUM, Strain/Indicator: TA100, Metabolic Activation: NONE, Method: PREINCUBATION (11 HR GROWTH PERIOD FOR BACTERIA)): inactive; negative
mutagenic call [3]: inactive; negative
mutagenic call [4]: inactive; negative
mutagenic call (Test System: AMES SALMONELLA TYPHIMURIUM, Strain/Indicator: TA100, Metabolic Activation: RAT, LIVER, S-9, PCB, Method: PREINCUBATION (11 HR GROWTH PERIOD FOR BACTERIA)): inactive; negative
mutagenic call (Test System: AMES SALMONELLA TYPHIMURIUM, Strain/Indicator: TA102, Metabolic Activation: NONE, Method: PREINCUBATION (5 HR GROWTH PERIOD FOR BACTERIA)): active; positive
mutagenic call (Test System: AMES SALMONELLA TYPHIMURIUM, Strain/Indicator: TA102, Metabolic Activation: NONE, Method: PREINCUBATION (7 OR 11 HR GROWTH PERIOD FOR BACTERIA)): inactive; negative
mutagenic call (Test System: AMES SALMONELLA TYPHIMURIUM, Strain/Indicator: TA102, Metabolic Activation: NONE, Method: STANDARD PLATE): inactive; negative
mutagenic call (Test System: AMES SALMONELLA TYPHIMURIUM, Strain/Indicator: TA102, Metabolic Activation: RAT, LIVER, S-9, AROCLOR 1254, Method: STANDARD PLATE): inactive; negative
mutagenic call (Test System: AMES SALMONELLA TYPHIMURIUM, Strain/Indicator: TA102, Metabolic Activation: RAT, LIVER, S-9, PCB, Method: PREINCUBATION (5 OR 7 HR GROWTH PERIOD FOR BACTERIA)): inactive; negative
